The values that follow are results of earlier work, collected in patent US5420288A, “Electroluminescent device comprising oxadiazole compounds luminescent material, oxadiazole compounds for the device, and method of producing oxadiazole compounds” (Ricoh Company, Ltd., priority 1992, dated 1995).

For this series the following is noted: conventional materials, background.

Consider `CC(C)(C)c1ccc(-c2nnc(-c3ccc(-c4ccccc4)cc3)o2)cc1` [2-(4-tert-butylphenyl)-5-(p-biphenyl)-1,3,4-oxadiazole], for which the “film-forming properties / crystallization / stability” value was “easily crystallized and lacks in the stability”.
